# In EP4682145A1, “BENZOHETEROCYCLIC COMPOUND, AND PREPARATION METHOD THEREFOR AND USE THEREOF” (Cascade Pharmaceuticals, Inc., priority 2023, dated 2024):
# Marks after values point to notes of the source that are not given here.
# Columns and labels:
# [1] = tested on: normal male C57BL6/J mice; assay: In vivo hypoglycemia risk assay in fasted normal C57BL6/J mice; conditions: for Blood Glucose / AUC 0-120 minutes: fasted 16 hours; for AUC 0-120 minutes: blood glucose AUC
# Procedure: The blank control group was orally administered with the vehicle control (2% DMO + 15% solutol + 83% DDW solution), with a dosing volume of 10 mL/kg. […] […] Data were expressed as mean ± standard deviation. One-way ANOVA was employed for statistical analysis, with p < 0.05 considered statistically significant.
# [2] = tested on: normal C57BL6/J mice; assay: Oral glucose tolerance test (OGTT) in normal C57BL6/J mice; format: in vivo; conditions: 1 mg/kg gavage, single dose; for AUC 0-120 minutes: blood glucose AUC
# Procedure: Eighteen normal male C57BL6/J mice (8-9 weeks old) were selected and randomly divided into 3 groups based on body weight and blood glucose levels, with 6 mice in each group. On the day of the OGTT, fasting was initiated at 8:30 AM. At 11:30 AM, drug interventions were administered via gavage (vehicle control, compound 14, 1 mg/kg, and compound 169, 1 mg/kg). At 1:30 PM, glucose (2 g/kg) was administered via gavage, while the blank control group received the vehicle control orally (2% DMSO + 15% solutol + 83% DDW solution) at a dosing volume of 10 mL/kg. Blood glucose measurements during the OGTT were taken at the following time points: 0, 15, 30, 60, 90, and 120 minutes after glucose administration.
# Blood glucose levels were measured at 0, 15, 30, 60, and 120 minutes after glucose administration. The area under the curve (AUC) for blood glucose over 120 minutes was calculated. [formula]
# (§1) Note: BG0, BG15, BG30, BG60, BG90, and BG120 represent the blood glucose levels at 0, 15, 30, 60, 90, and 120 minutes after glucose administration, respectively.
# (§2) Data were expressed as mean ± standard deviation. One-way ANOVA was employed for statistical analysis, with p < 0.05 considered statistically significant.
# [3] = tested on: C57BL6/J mice; assay: In vivo pharmacodynamic assay for non-alcoholic fatty liver disease (high-fat, high-cholesterol, high-fructose diet mice); conditions: for Hepatic Hydroxyproline / Total Liver Hydroxyproline (µg/liver): liver; for ALT (U/L) / AST (U/L): serum
# Procedure: Normal male C57BL6/J mice ([…]) were fed a high-fat, high-cholesterol, high-fructose diet (D09100310, Research Diets) for 20 weeks. Based on body weight and biochemical data, the mice were randomly divided into groups, with 6 mice per group. The compound 169 (0.03, 0.1, and 0.6 mg/kg) was administered via oral gavage. The positive control was MGL3196 (1 mg/kg), and the blank control group consisted of mice of the same strain and age fed a normal diet for the same duration. The blank control and model control groups were given the vehicle (15% solutol + 85% DDW), totaling 6 groups. Administration was performed once daily for 28 days. After overnight fasting, on day 29 at the experimental endpoint, blood was collected from the heart after CO2 euthanasia. Serum ALT and AST biochemical indicators were measured, and liver tissue was harvested for hepatic hydroxyproline content determination.
# Blood was collected using anticoagulant-free tubes, allowed to stand at room temperature for 30 minutes, and then centrifuged at 4000 rpm for 10 minutes to separate serum, which was tested by Dian Diagnostics. Approximately 50 mg of liver tissue was taken from each mouse and tested according to the hydroxyproline assay kit method (Nanjing Jiancheng, Cat. No.: A030-2-1).
# as §2
# [4] = tested on: high-fat diet-induced DIO mice; assay: Oral glucose tolerance test (OGTT) in high-fat diet-induced DIO mice; format: in vivo
# From the text: Normal male C57BL6/J mice (8-9 weeks old) were housed 3-4 per cage and fed a high-fat, high-cholesterol, high-fructose diet (D09100310, Research Diets) for 13 weeks with unrestricted access to water. After 13 weeks of high-fat, high-cholesterol, high-fructose diet feeding, the mice were randomly divided into 5 groups based on body weight and blood glucose levels, with age-matched mice fed a normal diet serving as the normal blank control group, with 6 mice in each group. Under fasting conditions (16 hours), the test compound 169 was administered via oral gavage at different concentrations of 0.03, 0.1, 0.6, and 3 mg/kg, while the normal blank control and model control groups were given the vehicle (15% solutol + 85% DDW solution), with a dosing volume of 10 mL/kg. On the day of administration, blood glucose levels in mice were measured. 2 hours after oral gavage administration, each group was given 2 g/kg of glucose orally. Blood glucose levels were measured at 0, 15, 30, 60, 90, 120, and 150 minutes after glucose administration.
# Blood glucose levels were measured at 0, 15, 30, 60, and 120 minutes after glucose administration. […]
# as §1, §2
# [5] = 0.03 mpk oral gavage once daily for 28 days
# [6] = 0.1 mpk oral gavage once daily for 28 days
# [7] = 0.6 mpk oral gavage once daily for 28 days
compound,measurement,setting,value
COc1ccc(F)c(N2CCC(c3oc4cc([C@@H](CC(=O)O)C5CC5)ccc4c3-c3ccc(C(C)(C)C)cc3)CC2)c1 [Compound 169],Blood Glucose,"[1]; 3 mg/kg oral, 0 minutes after administration",4.3 ± 0.59 mmol/L
same,Blood Glucose,"[1]; 3 mg/kg oral, 30 minutes after administration",5.42 ± 0.56 mmol/L
same,Blood Glucose,"[1]; 3 mg/kg oral, 60 minutes after administration",4.73 ± 0.82 mmol/L
same,Blood Glucose,"[1]; 3 mg/kg oral, 120 minutes after administration",4.1 ± 0.51 mmol/L
same,Blood Glucose,"[1]; 10 mg/kg oral, 0 minutes after administration",4.65 ± 0.75 mmol/L
same,Blood Glucose,"[1]; 10 mg/kg oral, 30 minutes after administration",6.1 ± 1.01 mmol/L
same,Blood Glucose,"[1]; 10 mg/kg oral, 60 minutes after administration",4.92 ± 1.01 mmol/L
same,Blood Glucose,"[1]; 10 mg/kg oral, 120 minutes after administration",4 ± 0.87 mmol/L
same,AUC 0-120 minutes,[1]; 3 mg/kg oral,563 ± 34.91 mmol·min
same,AUC 0-120 minutes,[1]; 10 mg/kg oral,594 ± 49.00 mmol·min
same,risk of hypoglycemia,"[1]; judged from AUC0-120 min versus blank control, Glibenclamide 10 mg/kg, compound 169 at 3 mg/kg and 10 mg/kg",no risk of hypoglycemia
same,Blood Glucose,[2]; 0 minutes after glucose (2 g/kg),7.88 ± 0.62 mmol/L
same,Blood Glucose,[2]; 15 minutes after glucose (2 g/kg),12.78 ± 1.65 mmol/L
same,Blood Glucose,[2]; 30 minutes after glucose (2 g/kg),9.28 ± 1.32 mmol/L
same,Blood Glucose,[2]; 60 minutes after glucose (2 g/kg),9.28 ± 1.32 mmol/L
same,Blood Glucose,[2]; 90 minutes after glucose (2 g/kg),7.67 ± 2.31 mmol/L
same,Blood Glucose,[2]; 120 minutes after glucose (2 g/kg),7.13 ± 1.25 mmol/L
same,AUC 0-120 minutes,[2]; 1 mg/kg,1075±66.01
same,AUC 0-120 minutes,"[2]; listed as compound 169, 1 mg/kg",significantly reduced
same,Hepatic Hydroxyproline,[3]; [5],128.06 ± 55.18 µg/g
same,Total Liver Hydroxyproline (µg/liver),[3]; [5],308.56±121.44 µg/liver
same,ALT (U/L),[3]; [5],148±81.95 U/L
same,AST (U/L),[3]; [5],204.5±79.09 U/L
same,Hepatic Hydroxyproline,[3]; [6],119.16 ± 39.65 µg/g
same,Total Liver Hydroxyproline (µg/liver),[3]; [6],266.4±80.67 µg/liver
same,ALT (U/L),[3]; [6],110±37.12 U/L
same,AST (U/L),[3]; [6],156±30.59 U/L
same,Hepatic Hydroxyproline,[3]; [7],85.24 ± 47.63 µg/g
same,Total Liver Hydroxyproline (µg/liver),[3]; [7],187.94±110.56 µg/liver
same,ALT (U/L),[3]; [7],103.8±35.53 U/L
same,AST (U/L),[3]; [7],163.2±42.98 U/L
same,liver protection and liver fibrosis inhibition effects,"[3]; doses of 0.03, 0.1, and 0.6 mg/kg, compared with the model control","reduced ALT, AST, and liver hydroxyproline levels"
same,Blood Glucose,"[4]; 0.03 mg/kg oral gavage, 0 minutes after glucose (2 g/kg)",10.78 ± 0.81 mmol/L
same,Blood Glucose,"[4]; 0.03 mg/kg oral gavage, 15 minutes after glucose",20.08 ± 2.94 mmol/L
same,Blood Glucose,"[4]; 0.03 mg/kg oral gavage, 30 minutes after glucose",16.63 ± 3.66 mmol/L
same,Blood Glucose,"[4]; 0.03 mg/kg oral gavage, 60 minutes after glucose",14.62 ± 3.62 mmol/L
same,Blood Glucose,"[4]; 0.03 mg/kg oral gavage, 90 minutes after glucose",14.92 ± 2.34 mmol/L
same,Blood Glucose,"[4]; 0.03 mg/kg oral gavage, 150 minutes after glucose",10.75 ± 1.1 mmol/L
same,Blood Glucose,"[4]; 0.1 mg/kg oral gavage, 0 minutes after glucose (2 g/kg)",9.28 ± 2.89 mmol/L
same,Blood Glucose,"[4]; 0.1 mg/kg oral gavage, 15 minutes after glucose",17.65 ± 2.09 mmol/L
same,Blood Glucose,"[4]; 0.1 mg/kg oral gavage, 30 minutes after glucose",18.67 ± 4.11 mmol/L
same,Blood Glucose,"[4]; 0.1 mg/kg oral gavage, 60 minutes after glucose",13.53 ± 3.03 mmol/L
same,Blood Glucose,"[4]; 0.1 mg/kg oral gavage, 90 minutes after glucose",10.27 ± 1.68 mmol/L
same,Blood Glucose,"[4]; 0.1 mg/kg oral gavage, 120 minutes after glucose",10.05 ± 1.47 mmol/L
same,Blood Glucose,"[4]; 0.1 mg/kg oral gavage, 150 minutes after glucose",10.17 ± 1.68 mmol/L
same,Blood Glucose,"[4]; 0.6 mg/kg oral gavage, 0 minutes after glucose (2 g/kg)",9.57 ± 2.06 mmol/L
same,Blood Glucose (mmol/L),"[4]; 0.6 mg/kg oral gavage, 15 minutes after glucose",16.48± 2.15** * mmol/L
same,Blood Glucose,"[4]; 0.6 mg/kg oral gavage, 30 minutes after glucose",12.97 ± 3.71 mmol/L
same,Blood Glucose,"[4]; 0.6 mg/kg oral gavage, 60 minutes after glucose",11.98 ± 2.95 mmol/L
same,Blood Glucose,"[4]; 0.6 mg/kg oral gavage, 90 minutes after glucose",11.27 ± 2.66 mmol/L
same,Blood Glucose,"[4]; 0.6 mg/kg oral gavage, 120 minutes after glucose",9.12 ± 2.14 mmol/L
same,Blood Glucose,"[4]; 0.6 mg/kg oral gavage, 150 minutes after glucose",9.52 ± 1.62 mmol/L
same,Blood Glucose,"[4]; 3 mg/kg oral gavage, 0 minutes after glucose (2 g/kg)",13.02 ± 2.46 mmol/L
same,Blood Glucose,"[4]; 3 mg/kg oral gavage, 15 minutes after glucose",17.22 ± 2.02 mmol/L
same,Blood Glucose,"[4]; 3 mg/kg oral gavage, 30 minutes after glucose",14 ± 3.49 mmol/L
same,Blood Glucose,"[4]; 3 mg/kg oral gavage, 60 minutes after glucose",10.52 ± 2.23 mmol/L
same,Blood Glucose,"[4]; 3 mg/kg oral gavage, 90 minutes after glucose",9.88 ± 0.85 mmol/L
same,Blood Glucose,"[4]; 3 mg/kg oral gavage, 120 minutes after glucose",8.3 ± 1.63 mmol/L
same,Blood Glucose (mmol/L),"[4]; 3 mg/kg oral gavage, 150 minutes after glucose",7.37±1.44* * mmol/L
same,AUC0-150 min,"[4]; blood glucose AUC, 0.03 mg/kg oral gavage",2194 ± 132.70 mmol·min
same,AUC0-150 min (mmol*min),"[4]; blood glucose AUC, 0.1 mg/kg oral gavage, 0.1 mg/kg",significantly reduced
same,AUC0-150 min (mmol*min),"[4]; blood glucose AUC, 0.6 mg/kg oral gavage, 0.6 mg/kg",1725± 119.90 **** mmol*min
same,AUC0-150 min (mmol*min),"[4]; blood glucose AUC, 0.6 mg/kg oral gavage, listed as compound 169, 0.6 mg/kg",significantly reduced
same,AUC0-150 min (mmol*min),"[4]; blood glucose AUC, 3 mg/kg oral gavage, 3 mg/kg",1642±91.83 **** mmol*min
same,AUC0-150 min (mmol*min),"[4]; blood glucose AUC, 3 mg/kg oral gavage, listed as compound 169, 3 mg/kg",significantly reduced
